Assay results: paper PMC6792352, “Limited Chemical Structural Diversity Found to Modulate Thyroid Hormone Receptor in the Tox21 Chemical Library” (Environmental Health Perspectives, 2019)
Where a name gives a salt, the structure may show the parent alone.

Test: in vitro
Conditions: rat, gh3-tre-luc cells, AC50 (uM) modified / 1000
In the case of CC(C)C(=O)OCC(C)(C)C(OC(=O)C(C)C)C(C)C (stereo not shown) [2,2,4-Trimethyl-1,3-pentanediol diisobutyrate], the CC50 at 24 h was > 90 µM.
With CN1CCC(=C2c3ccccc3C=Cc3ccccc32)CC1 [Cyproheptadine] the CC50 at 24 h was 12.2 µM.
With NCCN1CCNC1=O [1-(2-Aminoethyl)imidazolidin-2-one] the CC50 at 24 h was > 90 µM.
In the case of Cc1ccccc1S(=O)(=O)O [Sodium 2-methylbenzenesulfonate], the CC50 at 24 h was > 100 µM.
With O=c1[nH]cnc2nc[nH]c12 [Hypoxanthine] the CC50 at 24 h was > 50 µM.
With CC(O)(CS(=O)(=O)c1ccc(F)cc1)C(=O)Nc1ccc(C#N)c(C(F)(F)F)c1 (stereo not shown) [Bicalutamide] the CC50 at 24 h was > 50 µM.
With Cc1cccnc1 [3-Methylpyridine] the CC50 at 24 h was > 90 µM.
With COc1ccccc1OCC1CNC(=O)O1 (stereo not shown) [Mephenoxalone] the CC50 at 24 h was > 50 µM.
For CCOc1ccccc1O [2-Ethoxyphenol], the CC50 at 24 h was > 90 µM.
With CC(C)COC(=O)C(C)C [Isobutyl isobutyrate] the CC50 at 24 h was > 90 µM.
In the case of C=CC(C)(CCC=C(C)C)OC(=O)CC(C)C (stereo not shown) [Linalyl isovalerate], the CC50 at 24 h was > 90 µM.
For O=C1c2cccc3c2[C@H](CCC3)CN1[C@@H]1CN2CCC1CC2 [Palonosetron hydrochloride], the CC50 at 24 h was 23.5 µM.
For O=c1[nH]c(=O)c2ccccc2o1 [Carsalam], the CC50 at 24 h was > 50 µM.
In the case of COc1cc(C(=O)NCc2ccc(OCCN(C)C)cc2)cc(OC)c1OC [Trimethobenzamide hydrochloride], the CC50 at 24 h was > 20 µM.
With O=C(O)c1cc(C(=O)O)cc(C(=O)O)c1 [1,3,5-Benzenetricarboxylic acid] the CC50 at 24 h was > 90 µM.
With O=[N+]([O-])c1ccc(/C=N\O)o1 [Nifuroxime] the CC50 at 24 h was > 50 µM.
With CC(C)(C)c1cc(CCC(=O)NN)cc(C(C)(C)C)c1O [3-[3,5-DI(tert-butyl)-4-hydroxyphenyl]propanohydrazide] the CC50 at 24 h was > 90 µM.
For CCc1occc(=O)c1O [2-Ethyl-3-hydroxy-4H-pyran-4-one], the CC50 at 24 h was > 90 µM.
In the case of COc1ccccc1O [2-Methoxyphenol], the CC50 at 24 h was > 90 µM.
Compound NC(=O)Cn1c(=O)cc(CCN2CCN(c3nccc4sccc34)CC2)c2ccc(F)cc21 [Trelanserin] has a CC50 at 24 h of 52.8 µM.
For C#CCN1C(=O)COc2cc(F)c(N3C(=O)C4=C(CCCC4)C3=O)cc21 [Flumioxazin], the CC50 at 24 h was > 90 µM.
C#C[C@]1(OC(C)=O)CC[C@H]2[C@@H]3CCC4=CC(=NO)CC[C@@H]4[C@H]3CC[C@@]21CC (mixture of isomers) [Norgestimate] gave a CC50 at 24 h of 30.6 µM.
In the case of CCCN(CCC)CCc1cccc2c1CC(=O)N2 [Ropinirole], the CC50 at 24 h was > 50 µM.
With C[C@H](N)C(=O)N[C@@H](C)P(=O)(O)O [Alafosfalin] the CC50 at 24 h was > 50 µM.
In the case of Nc1cc(N)cc(C(=O)O)c1 [3,5-Diaminobenzoic acid], the CC50 at 24 h was > 90 µM.
In the case of NCc1ccccc1CC(=O)N[C@@H]1C(=O)N2C(C(=O)O)=C(CSc3nnnn3CC(=O)O)CS[C@H]12 [Ceforanide], the CC50 at 24 h was > 20 µM.
In the case of CC1=CC(C)(C)Nc2ccccc21 [1,2-Dihydro-2,2,4-trimethylquinoline], the CC50 at 24 h was > 90 µM.
In the case of CCCCOC(=O)C(=O)OCCCC [Dibutyl ethanedioate], the CC50 at 24 h was > 90 µM.
For O=C(O)c1ccc2c(c1)C(=O)OC2=O [Trimellitic anhydride], the CC50 at 24 h was > 90 µM.
In the case of C=C(C)C(=O)OCCOCCOC(=O)C(=C)C [Di(ethylene glycol) dimethacrylate], the CC50 at 24 h was > 90 µM.
With COC(=O)c1cc(C(=O)OC)cc(S(=O)(=O)O)c1 [Sodium 3,5-bis(methoxycarbonyl)benzenesulfonate] the CC50 at 24 h was > 90 µM.
In the case of O=c1[nH]c(=O)[nH]c(=O)[nH]1 [Cyanuric acid], the CC50 at 24 h was > 90 µM.
In the case of Cn1cc(C2=C(c3cn(C4CCN(Cc5ccccn5)CC4)c4ccccc34)C(=O)NC2=O)c2ccccc21 [Enzastaurin], the CC50 at 24 h was > 50 µM.
In the case of N[C@@H]1CON=C1O [Cycloserine], the CC50 at 24 h was > 50 µM.
With CC(CO)(CO)C(=O)O [3-Hydroxy-2-(hydroxymethyl)-2-methylpropanoic acid] the CC50 at 24 h was > 90 µM.
With CC(=O)Nc1c(I)c(NC(C)=O)c(I)c(C(=O)O)c1I [Diatrizoic acid dihydrate] the CC50 at 24 h was > 50 µM.
With O=C1C(O)=C([C@H]2CC[C@H](c3ccc(Cl)cc3)CC2)C(=O)c2ccccc21 [Atovaquone] the CC50 at 24 h was 8.49 µM.
With CCOC(=O)c1ccc(O)cc1 [Ethylparaben] the CC50 at 24 h was > 90 µM.
In the case of CC1=C(C(=O)OC(C)C)C(c2cccc([N+](=O)[O-])c2)C(C(=O)OC2CN(C(c3ccccc3)c3ccccc3)C2)=C(N)N1 (stereo not shown) [Azelnidipine], the CC50 at 24 h was 4.41 µM.
In the case of COc1ccc(Nc2ccccc2)c(C)c1 [4-Methoxy-2-methyl-N-phenylaniline], the CC50 at 24 h was > 90 µM.
With COC(=O)NCCC[Si](OC)(OC)OC [Methyl [3-(trimethoxysilyl)propyl]carbamate] the CC50 at 24 h was > 90 µM.
In the case of CCCCCCCCCCCCCBr [1-Bromotridecane], the CC50 at 24 h was > 90 µM.
For CC(=O)Nc1ccc(C(=O)O)cc1 [4-Acetamidobenzoic acid], the CC50 at 24 h was > 90 µM.
For ClCCl [Dichloromethane], the CC50 at 24 h was > 90 µM.
For CCCCCCCCCCCCCCCC(=O)OC[C@H](O)[C@H]1OC(=O)C(O)=C1O [Ascorbyl palmitate], the CC50 at 24 h was > 50 µM.
With O=C1c2ccccc2C(=O)N1CO [2-(Hydroxymethyl)-1H-Isoindole-1,3(2H)-dione] the CC50 at 24 h was > 90 µM.
With CCCCCCC(=O)O [Heptanoic acid] the CC50 at 24 h was > 90 µM.
With c1ccc(-c2cccc(-c3ccccc3)c2)cc1 [1,1':3',1''-Terphenyl] the CC50 at 24 h was > 90 µM.
In the case of O=S(=O)(O)Oc1ccc(C(c2ccc(OS(=O)(=O)O)cc2)c2ccccn2)cc1 [Picosulfate sodium], the CC50 at 24 h was > 50 µM.
For CCC(=O)c1c(O)cc(O)cc1O [Flopropione], the CC50 at 24 h was > 50 µM.
For COc1ccc(C(CN(C)C)C2(O)CCCCC2)cc1 (stereo not shown) [Venlafaxine hydrochloride], the CC50 at 24 h was > 90 µM.
For CNCc1ccc(NC(=O)c2c[nH]c3c2C(=O)CCC3)cc1 [CP-409092], the CC50 at 24 h was > 90 µM.
For CCC(=O)OCc1ccc(OC)cc1 [Anisyl propionate], the CC50 at 24 h was > 90 µM.
With CCC(Oc1ccccc1)C(=O)N[C@@H]1C(=O)N2[C@@H]1SC(C)(C)[C@@H]2C(=O)O (stereo partly shown) [Propicillin] the CC50 at 24 h was > 50 µM.
In the case of C=C(CC(=O)O)C(=O)O [Methylenebutanedioic acid], the CC50 at 24 h was > 90 µM.
With O=C1CCCC(=O)C1 [1,3-Cyclohexanedione] the CC50 at 24 h was > 90 µM.
With COc1ccc(Cc2nccc3cc(OC)c(OC)cc23)cc1OC [Papaverine hydrochloride] the CC50 at 24 h was > 20 µM.
For O=[N+]([O-])c1ccc(/C=C/c2ccc([N+](=O)[O-])cc2S(=O)(=O)O)c(S(=O)(=O)O)c1 [Disodium 4,4'-dinitro-2,2'-stilbenedisulfonate], the CC50 at 24 h was > 90 µM.
In the case of CCCCCC(C)=O [2-Heptanone], the CC50 at 24 h was > 90 µM.
With CCC(=O)O[C@]1(C(=O)CCl)[C@@H](C)C[C@H]2[C@@H]3C[C@H](F)C4=CC(=O)C=C[C@]4(C)[C@@]3(F)[C@@H](O)C[C@@]21C [Halobetasol propionate] the CC50 at 24 h was > 50 µM.
Compound CCCCCCCCCCCCCC[P+](CCCCCC)(CCCCCC)CCCCCC [Trihexyltetradecylphosphonium chloride] has a CC50 at 24 h of 5.15 µM.
For COc1ccc2c(c1)C(=O)N(CCc1ccc(S(=O)(=O)NC(=O)NC3CCCCC3)cc1)C(=O)C2(C)C [Gliquidone], the CC50 at 24 h was > 20 µM.
For CC1(C)S[C@@H]2[C@H](NC(=O)C(C(=O)O)c3ccsc3)C(=O)N2[C@H]1C(=O)O (stereo partly shown) [Ticarcillin disodium], the CC50 at 24 h was > 50 µM.
In the case of BrCCCCCBr [Pentane,1,5-dibromo-], the CC50 at 24 h was > 100 µM.
In the case of Cc1cccc(Cc2c[nH]cn2)c1C [Detomidine hydrochloride], the CC50 at 24 h was > 50 µM.
In the case of CS(=O)(=O)Nc1cc2occ(NC=O)c(=O)c2cc1Oc1ccccc1 [Iguratimod], the CC50 at 24 h was > 50 µM.
For CC(C)(C)C(=O)OCOC(=O)[C@@H]1N2C(=O)C[C@H]2S(=O)(=O)C1(C)C [Pivoxil Sulbactam], the CC50 at 24 h was > 50 µM.
In the case of C=C(C)C(=O)OCCN(CC)CC [2-(Diethylamino)ethyl methacrylate], the CC50 at 24 h was > 90 µM.
In the case of CCC(C(N)=O)N1CCCC1=O (stereo not shown) [Etiracetam], the CC50 at 24 h was > 50 µM.
CC(C)(C)c1cc(/C=C2\SC(N)=NC2=O)cc(C(C)(C)C)c1O [Darbufelone mesylate] showed a CC50 at 24 h of 23.6 µM.

Same assay, conditions: rat, gh3-tre-luc cells, AC50 (uM) modified / 1000, Tox21_110001=Tox21_110485; viability, 1 nM T3 present, 24 h
For CC(=O)O[C@H]1CC[C@@]2(C)C(=CC[C@@H]3[C@@H]2CC[C@]2(C)C(=O)CC[C@@H]32)C1 [Dehydroepiandrosterone acetate], the CC50 at 24 h was > 20 µM.

Same assay, conditions: rat, gh3-tre-luc cells, AC50 (uM) modified / 1000, Tox21_110001=Tox21_111863; viability, 1 nM T3 present, 24 h
In the case of CCCCCCCCCC(=O)O[C@H]1CC[C@H]2[C@@H]3CCC4=CC(=O)CC[C@]4(C)[C@H]3CC[C@]12C [Testosterone decanoate], the CC50 at 24 h was > 50 µM.

Same assay, conditions: rat, gh3-tre-luc cells, AC50 (uM) modified / 1000, Tox21_110001=Tox21_112428; viability, 1 nM T3 present, 24 h
With CN1CCCC(=C(c2cccs2)c2cccs2)C1 [Tipepidine] the CC50 at 24 h was > 50 µM.

Same assay, conditions: rat, gh3-tre-luc cells, AC50 (uM) modified / 1000, Tox21_110001=Tox21_112862; viability, 1 nM T3 present, 24 h
For Oc1ccc2c3c1O[C@H]1[C@@H](O)C=C[C@H]4[C@@H](C2)NCC[C@@]341 [N-Normorphine hydrochloride], the CC50 at 24 h was > 100 µM.

Same assay, conditions: rat, gh3-tre-luc cells, AC50 (uM) modified / 1000, Tox21_110001=Tox21_200050; viability, 1 nM T3 present, 24 h
With NC(=O)C(Cl)Cl [2,2-Dichloroacetamide] the CC50 at 24 h was > 90 µM.

Same assay, conditions: rat, gh3-tre-luc cells, AC50 (uM) modified / 1000, Tox21_110001=Tox21_200963; viability, 1 nM T3 present, 24 h
For CC(=O)O[C@H]1CC[C@@]2(C)C(=CC[C@@H]3[C@@H]2CC[C@]2(C)C(=O)CC[C@@H]32)C1 [Dehydroepiandrosterone acetate], the CC50 at 24 h was > 90 µM.

Same assay, conditions: rat, gh3-tre-luc cells, AC50 (uM) modified / 1000, Tox21_110001=Tox21_201332; viability, 1 nM T3 present, 24 h
With Cc1ccc([N+](=O)[O-])cc1C [1,2-Dimethyl-4-nitrobenzene] the CC50 at 24 h was > 90 µM.

Same assay, conditions: rat, gh3-tre-luc cells, AC50 (uM) modified / 1000, Tox21_110001=Tox21_300396; viability, 1 nM T3 present, 24 h
For O=S(=O)(O)C(F)(F)C(F)(F)C(F)(F)C(F)(F)C(F)(F)C(F)(F)F [Potassium perfluorohexanesulfonate], the CC50 at 24 h was > 90 µM.

Same assay, conditions: rat, gh3-tre-luc cells, AC50 (uM) modified / 1000, Tox21_110001=Tox21_301548; viability, 1 nM T3 present, 24 h
For CCCCCCCc1ccc(O)cc1 [4-Heptylphenol], the CC50 at 24 h was > 90 µM.
